Measured values taken from ChEMBL document CHEMBL4033672, “Synthesis and biological evaluation of chemokine receptor ligands with 2-benzazepine scaffold” (Eur J Med Chem, 2017).
The source made the active and inactive calls. The calls are words filed in the database; no cut-off is given here.

Assays:
[1] = target: T1, C-C chemokine receptor type 5 (Homo sapiens, UniProt P51681); test: Displacement of [3H]TAK-779 from CCR5 (unknown origin) at 1 uM after 120 mins by scintillation counting method relative to control
Target sequence in this assay (P51681 whole entry, looked up): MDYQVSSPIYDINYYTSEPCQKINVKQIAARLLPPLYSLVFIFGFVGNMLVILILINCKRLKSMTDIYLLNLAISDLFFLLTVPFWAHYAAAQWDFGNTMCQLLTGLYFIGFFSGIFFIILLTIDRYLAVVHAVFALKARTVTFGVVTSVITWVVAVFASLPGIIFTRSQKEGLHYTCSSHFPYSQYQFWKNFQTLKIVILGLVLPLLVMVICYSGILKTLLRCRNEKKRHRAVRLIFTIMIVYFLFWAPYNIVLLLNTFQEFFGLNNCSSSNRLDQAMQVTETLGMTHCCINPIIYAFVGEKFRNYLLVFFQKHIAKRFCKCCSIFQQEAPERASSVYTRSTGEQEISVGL

[2] = target: T1, C-C chemokine receptor type 5; test: Positive allosteric modulation of human CCR5 expressed in HEK293T cells co-expressing CAMYEL assessed as increase in CCL4-induced inhibition of forskolin-stimulated cAMP accumulation after 10 mins by BRET assay; type: functional, cell-based, HEK-293T
Target sequence in this assay (P51681 whole entry): as the sequence (P51681 whole entry, looked up) above

[3] = target: T2, C-C chemokine receptor type 2 (Homo sapiens, UniProt P41597); test: Displacement of [3H]INCB3344 from human CCR2 expressed in human U2OS cells at 1 uM after 120 mins by scintillation spectrometric analysis relative to control; type: cell-based
Target sequence in this assay (P41597 whole entry, looked up): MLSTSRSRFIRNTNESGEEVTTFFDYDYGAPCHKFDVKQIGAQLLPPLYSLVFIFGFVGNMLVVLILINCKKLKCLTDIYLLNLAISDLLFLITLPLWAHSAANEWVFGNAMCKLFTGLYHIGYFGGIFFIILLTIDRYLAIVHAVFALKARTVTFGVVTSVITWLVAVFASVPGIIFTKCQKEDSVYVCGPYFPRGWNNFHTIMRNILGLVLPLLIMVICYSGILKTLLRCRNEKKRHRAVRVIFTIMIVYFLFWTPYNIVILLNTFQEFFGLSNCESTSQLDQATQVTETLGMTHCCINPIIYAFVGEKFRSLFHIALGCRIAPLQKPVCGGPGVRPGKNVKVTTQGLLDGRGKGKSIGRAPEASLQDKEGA

[4] = target: T2, C-C chemokine receptor type 2; test: Antagonist activity at human CCR2b expressed in human Chem1 cells assessed as inhibition of human recombinant CCL2 induced Ca2+ mobilization preincubated for 10 mins followed by CCL2 induction measured every sec for 120 secs by Fluo-4-AM dye-based fluorescence assay; type: functional, cell-based
Target sequence in this assay (P41597 whole entry): as the sequence (P41597 whole entry, looked up) above

[5] = target: T1, C-C chemokine receptor type 5; test: Negative allosteric modulation of human CCR5 expressed in HEK293T cells co-expressing CAMYEL assessed as decrease in CCL4-induced inhibition of forskolin-stimulated cAMP accumulation after 10 mins by BRET assay; type: functional, cell-based; conditions: HEK-293T
Target sequence in this assay (P51681 whole entry, looked up): as the sequence (P51681 whole entry, looked up) above

[6] = target: T1, C-C chemokine receptor type 5; test: Negative allosteric modulation of human CCR5 expressed in HEK293T cells co-expressing CAMYEL assessed as decrease in CCL5-induced inhibition of forskolin-stimulated cAMP accumulation after 10 mins by BRET assay; type: functional, cell-based; conditions: HEK-293T
Target sequence in this assay (P51681 whole entry, looked up): as above

[7] = target: T2, C-C chemokine receptor type 2; test: Displacement of [3H]INCB3344 from human CCR2 expressed in human U2OS cells after 120 mins by scintillation spectrometric analysis; type: cell-based
Target sequence in this assay (P41597 whole entry): as the sequence (P41597 whole entry, looked up) above

[8] = target: T1, C-C chemokine receptor type 5; test: Displacement of [3H]TAK-779 from CCR5 (unknown origin) after 120 mins by scintillation counting method
Target sequence in this assay (P51681 whole entry): as the sequence (P51681 whole entry, looked up) above

[9] = target: T1, C-C chemokine receptor type 5; test: Intrinsic agonist activity at human CCR5 expressed in HEK293T cells co-expressing CAMYEL assessed as inhibition of forskolin-stimulated cAMP accumulation after 10 mins by BRET assay; type: functional, cell-based; conditions: HEK-293T
Target sequence in this assay (P51681 whole entry, looked up): as above

[10] = target: T1, C-C chemokine receptor type 5; test: Positive allosteric modulation of human CCR5 expressed in HEK293T cells co-expressing CAMYEL assessed as increase in CCL5-induced inhibition of forskolin-stimulated cAMP accumulation after 10 mins by BRET assay; type: functional, cell-based; conditions: HEK-293T
Target sequence in this assay (P51681 whole entry, looked up): as above

Row | Structure (SMILES) | inhibition [1] [%] | EC50 [2] [µM] | inhibition [3] [%] | IC50 [4] [µM] | Activity [5] | Activity [6] | IC50 [7] [µM] | IC50 [8] [µM] | Activity [9] | Activity [10]
1 | CC(C)CN1CC(C(=O)Nc2ccc(CN(C)C3CCOCC3)cc2)=Cc2ccc([N+](=O)[O-])cc2C1=O | 0 | > 0.01 | 9 |  |  |  |  |  |  | 
2 | Cc1ccc(-c2ccc3c(c2)C(=O)N(CC(C)C)CC(C(=O)Nc2ccc(CN(C)C4CCOCC4)cc2)=C3)cc1 | 0 | > 0.01 | 0 | 3 |  |  |  |  |  | 
3 | Cc1ccc(-c2ccc3c(c2)C=C(C(=O)Nc2ccc(CN(C)C4CCOCC4)cc2)CN(CC(C)C)C3=O)cc1 | 0 | > 0.01 |  | 0.14 | Active | Active | 0.387 |  |  | 
4 | CC(=O)Nc1ccc2c(c1)C(=O)N(CC(C)C)CC(C(=O)Nc1ccc(CN(C)C3CCOCC3)cc1)=C2 | 0 | > 0.01 | 15 |  |  |  |  |  |  | 
5 | CC(C)CN1CC(C(=O)Nc2ccc(CN(C)C3CCOCC3)cc2)=Cc2ccc(NS(C)(=O)=O)cc2C1=O | 0 | > 0.01 | 18 |  |  |  |  |  |  | 
6 | CC(C)CN1CC(C(=O)Nc2ccc(CN(C)C3CCOCC3)cc2)=Cc2c(cccc2[N+](=O)[O-])C1=O | 0 | > 0.01 | 6 |  |  |  |  |  |  | 

The remaining lines, values ahead:

Row | inhibition [1] [%] | EC50 [2] [µM] | inhibition [3] [%] | IC50 [4] [µM] | Activity [5] | Activity [6] | IC50 [7] [µM] | IC50 [8] [µM] | Activity [9] | Activity [10] | Structure (SMILES)
7 | 0 | > 0.01 | 18 |  |  |  |  |  |  |  | CC(C)CN1CC(C(=O)Nc2ccc(S(=O)(=O)Nc3nccs3)cc2)=Cc2ccccc2C1=O
8 |  | 0.007 |  |  |  |  |  | 0.002 |  |  | Cc1ccc(-c2ccc3c(c2)C=C(C(=O)Nc2ccc(C[N+](C)(C)C4CCOCC4)cc2)CCC3)cc1
9 | 0 | 2.47 | 18 |  |  |  |  |  | inactive | inactive | CC(C)CN1CC(C(=O)Nc2ccc(CN(C)C3CCOCC3)cc2)=Cc2ccccc2C1=O
